In brackets after ≈: the same amount, converted by molar mass.
What was measured:
Staphylococcus aureus [1] = assay: Antibacterial activity against Staphylococcus aureus ATCC 29213 measured after 16 to 18 hrs by CLSI method; assay type: functional; conditions: time 16-18 hrs
Staphylococcus aureus [2] = assay: Antibacterial activity against methicillin-resistant Staphylococcus aureus clinical isolate MRSA-22 measured after 16 to 18 hrs by CLSI method; assay type: functional; conditions: time 16-18 hrs
Staphylococcus aureus [3] = assay: Antibacterial activity against methicillin-resistant Staphylococcus aureus clinical isolate MRSA-16 measured after 16 to 18 hrs by CLSI method; assay type: functional; conditions: time 16-18 hrs
Staphylococcus aureus [4] = assay: Antibacterial activity against methicillin-resistant Staphylococcus aureus clinical isolate MRSA-11 measured after 16 to 18 hrs by CLSI method; assay type: functional; conditions: time 16-18 hrs
[5] = Hemolytic activity in sheep erythrocytes incubated for 1 hr by absorbance based analysis; assay type: toxicity, cell-based, Ovis aries, Erythrocyte
Escherichia coli = assay: Antibacterial activity against Escherichia coli ATCC25922 measured after 16 to 18 hrs by CLSI method; assay type: functional; conditions: time 16-18 hrs
Staphylococcus aureus [6] = assay: Antibacterial activity against methicillin-resistant Staphylococcus aureus clinical isolate MRSA-23 measured after 16 to 18 hrs by CLSI method; assay type: functional; conditions: time 16-18 hrs
Staphylococcus aureus [7] = assay: Antibacterial activity against methicillin-resistant Staphylococcus aureus clinical isolate MRSA-20 measured after 16 to 18 hrs by CLSI method; assay type: functional; conditions: time 16-18 hrs
Staphylococcus aureus [8] = assay: Antibacterial activity against methicillin-resistant Staphylococcus aureus clinical isolate MRSA-17 measured after 16 to 18 hrs by CLSI method; assay type: functional; conditions: time 16-18 hrs
Staphylococcus aureus [9] = assay: Antibacterial activity against methicillin-resistant Staphylococcus aureus clinical isolate MRSA-18 measured after 16 to 18 hrs by CLSI method; assay type: functional; conditions: time 16-18 hrs
Staphylococcus aureus [10] = assay: Antibacterial activity against methicillin-resistant Staphylococcus aureus clinical isolate MRSA-13 measured after 16 to 18 hrs by CLSI method; assay type: functional; conditions: time 16-18 hrs
Staphylococcus aureus [11] = assay: Antibacterial activity against methicillin-resistant Staphylococcus aureus clinical isolate MRSA-14 measured after 16 to 18 hrs by CLSI method; assay type: functional; conditions: time 16-18 hrs
Staphylococcus aureus [12] = assay: Antibacterial activity against methicillin-resistant Staphylococcus aureus clinical isolate MRSA-21 measured after 16 to 18 hrs by CLSI method; assay type: functional; conditions: time 16-18 hrs
[13] = Selectivity index, ratio of HC50 for hemolytic activity in sheep erythrocytes to MIC for antibacterial activity against Staphylococcus aureus ATCC 29213; assay type: toxicity, cell-based; conditions: read-out: Selectivity Index

Structure (SMILES)	MIC (Staphylococcus aureus [1]) [µg/mL]	MIC (Staphylococcus aureus [2]) [µg/mL]	MIC (Staphylococcus aureus [3]) [µg/mL]	MIC (Staphylococcus aureus [4]) [µg/mL]	HC50 at 1 h [5] [µg/mL]	MIC (Escherichia coli) [µg/mL]	MIC (Staphylococcus aureus [6]) [µg/mL]	MIC (Staphylococcus aureus [7]) [µg/mL]	MIC (Staphylococcus aureus [8]) [µg/mL]	MIC (Staphylococcus aureus [9]) [µg/mL]	MIC (Staphylococcus aureus [10]) [µg/mL]	MIC (Staphylococcus aureus [11]) [µg/mL]	MIC (Staphylococcus aureus [12]) [µg/mL]	selectivity ratio [13]
COc1cc(OCCCN2CCSCC2)c(CC=C(C)C)c2c1C(=O)CC(c1ccc(OCCCN3CCSCC3)cc1)O2 (configuration not stated)	> 128	> 128	> 128	> 128	> 640	> 128	> 128	> 128	> 128	> 128	> 128	> 128	> 128	
COc1cc(OCCCCCN2CCOCC2)c(CC=C(C)C)c2c1C(=O)CC(c1ccc(OCCCCCN3CCOCC3)cc1)O2 (configuration not stated)	16 (≈ 24.1 µM)	8 (≈ 12 µM)	16 (≈ 24.1 µM)	16 (≈ 24.1 µM)	> 1280	> 128	16 (≈ 24.1 µM)	16 (≈ 24.1 µM)	16 (≈ 24.1 µM)	16 (≈ 24.1 µM)	16 (≈ 24.1 µM)	16 (≈ 24.1 µM)	16 (≈ 24.1 µM)	> 80
COc1cc(OCCCCN(CC(C)C)CC(C)C)c(CC=C(C)C)c2c1C(=O)CC(c1ccc(OCCCCN(CC(C)C)CC(C)C)cc1)O2 (configuration not stated)	> 128	> 128	> 128	> 128	> 1280	> 128	> 128	> 128	> 128	> 128	> 128	> 128	> 128	
CCCCN(CCCC)CCCCOc1ccc(C2CC(=O)c3c(OC)cc(OCCCCN(CCCC)CCCC)c(CC=C(C)C)c3O2)cc1 (configuration not stated)	4 (≈ 5.55 µM)	8 (≈ 11.1 µM)	4 (≈ 5.55 µM)	8 (≈ 11.1 µM)	1200	> 128	8 (≈ 11.1 µM)	4 (≈ 5.55 µM)	4 (≈ 5.55 µM)	8 (≈ 11.1 µM)	8 (≈ 11.1 µM)	4 (≈ 5.55 µM)	8 (≈ 11.1 µM)	300
COc1cc(OCCCCN2CCCCC2)c(CC=C(C)C)c2c1C(=O)CC(c1ccc(OCCCCN3CCCCC3)cc1)O2 (configuration not stated)	32 (≈ 50.6 µM)	16 (≈ 25.3 µM)	16 (≈ 25.3 µM)	16 (≈ 25.3 µM)	199	> 128	16 (≈ 25.3 µM)	16 (≈ 25.3 µM)	16 (≈ 25.3 µM)	32 (≈ 50.6 µM)	16 (≈ 25.3 µM)	32 (≈ 50.6 µM)	32 (≈ 50.6 µM)	> 6.2
COc1cc(OCCCCCN2CCCCC2C)c(CC=C(C)C)c2c1C(=O)CC(c1ccc(OCCCCCN3CCCCC3C)cc1)O2 (configuration not stated)	32 (≈ 46.4 µM)	16 (≈ 23.2 µM)	8 (≈ 11.6 µM)	16 (≈ 23.2 µM)	292	> 128	16 (≈ 23.2 µM)	16 (≈ 23.2 µM)	8 (≈ 11.6 µM)	16 (≈ 23.2 µM)	16 (≈ 23.2 µM)	16 (≈ 23.2 µM)	8 (≈ 11.6 µM)	9.1
COc1cc(OCCCCCN(CC(C)C)CC(C)C)c(CC=C(C)C)c2c1C(=O)CC(c1ccc(OCCCCCN(CC(C)C)CC(C)C)cc1)O2 (configuration not stated)	> 128	> 128	> 128	> 128	> 1280	> 128	> 128	> 128	> 128	> 128	> 128	> 128	> 128	
COc1cc(OCCCCN2CCC(C)CC2)c(CC=C(C)C)c2c1C(=O)CC(c1ccc(OCCCCN3CCC(C)CC3)cc1)O2 (configuration not stated)	16 (≈ 24.2 µM)	8 (≈ 12.1 µM)	8 (≈ 12.1 µM)	16 (≈ 24.2 µM)	> 640	> 128	16 (≈ 24.2 µM)	16 (≈ 24.2 µM)	8 (≈ 12.1 µM)	16 (≈ 24.2 µM)	8 (≈ 12.1 µM)	16 (≈ 24.2 µM)	8 (≈ 12.1 µM)	> 40
COc1cc(OCCCCCN2CCN(C)CC2)c(CC=C(C)C)c2c1C(=O)CC(c1ccc(OCCCCCN3CCN(C)CC3)cc1)O2 (configuration not stated)	16 (≈ 23.2 µM)	16 (≈ 23.2 µM)	16 (≈ 23.2 µM)	16 (≈ 23.2 µM)	> 1280	> 128	16 (≈ 23.2 µM)	16 (≈ 23.2 µM)	8 (≈ 11.6 µM)	16 (≈ 23.2 µM)	16 (≈ 23.2 µM)	16 (≈ 23.2 µM)	16 (≈ 23.2 µM)	> 80
COc1cc(OCCCN2CCCCC2)c(CC=C(C)C)c2c1C(=O)CC(c1ccc(OCCCN3CCCCC3)cc1)O2 (configuration not stated)	64 (≈ 106 µM)	> 128	32 (≈ 52.9 µM)	> 128	467	> 128	> 128	> 128	> 128	> 128	> 128	> 128	> 128	7.3
